Source: patent US9273006B2, “Anabolic compounds for treating and preventing bone loss diseases” (SYDDANSK UNIVERSITET, priority 2012, dated 2016)
Read-outs that look alike come from different tables or passages of the source.

Experiments:
hMSC-TERT [1] = assay: In vitro osteoblast differentiation in OIM (ALP activity, alizarin red, qRT-PCR); type: cell-based, human
Experimental: (§1) F) H-8 enhances ALP activity of hMSC, in the absence of serum.
Adding H-8 (25 μM) to the osteogenic induction media, during 9-days in vitro hMSC osteogenic differentiation, enhanced expression of osteoblastic markers as shown by qRT-PCR analysis. **P≦0.05, ***P≦0.005 (significant difference as compared to vehicle).
H-8 was added (25 μM) to the OIM at different time points during 12-days period.
(§2) In order to confirm the results obtained from the initial screen, the present inventors incubated hMSC-TERT and primary human bone marrow derived MSC (hBMSC) in osteogenic induction medium (OIM) supplemented with H-8 (dose range 1-30 μM) or vehicle. […] To determine the stage of differentiation at which the effect of H-8 was most apparent, the present inventors added H-8 (25 μM) to the OIM at different time points during 12-days period.

[2] = tested on: primary human bone marrow derived MSC (hBMSC); assay: In vitro osteoblast differentiation in OIM (ALP activity, alizarin red); type: cell-based; conditions: dose range 1-30 μM
Experimental: as §1, §2

[3] = tested on: human adipose tissue derived MSC (hAT-MSC); assay: In vitro osteoblast differentiation (ALP activity, alizarin red); type: cell-based
hMSC = hMSC survival in vitro, western blot of activated Caspase-3; type: cell-based, human; conditions: 25 μM, during osteoblast differentiation
Experimental: A) H-8 treatment of hMSC (25 μM) during osteoblast differentiation, decreased apoptosis, as shown by western blot analysis of activated Caspase-3.
To investigate the effect of H-8 on hMSC survival in vitro, activation of Caspase-3 was evaluated, using western blot analysis.

[4] = tested on: hMSC implanted in mouse calvarial defect; assay: hMSC survival in vivo, mouse calvarial defect model; conditions: 4 weeks after implantation of treated hMSC
[5] = tested on: hMSC-TERT implants in SCID/NOD mice; assay: In vivo heterotopic bone formation of hMSC-TERT implanted with HA/TCP
Experimental: (A) Treatment of hMSC-TERT4 with H-8 (25 μM) for 7 days in vitro enhanced the in vivo heterotopic bone formation ability of the cells. (B) Systemic injection of H-8 at 30 mg/kg/day enhanced the amount of the heterotopic bone formed by hMSC-TERT4 implanted in SCID/NOD mice. (C) Human specific Vimentin staining confirmed that the newly formed heterotopic bone is of human origin. *P≦0.05 (significant difference as compared to vehicle).
To determine the effect of H-8 treatment on the ability of hMSC to form heterotopic bone in vivo, hMSC-TERT were treated with H-8 (25 μM) or vehicle for 7 days, mixed with hydroxyapatite/tricalcium phosphate (HA/TCP) as osteoconductive carrier, and implanted subcutaneously in SCID/NOD mice. […] Human specific vimentin staining confirmed that the newly formed heterotopic bone is of human origin (FIG. 6C).

[6] = Necropsy after systemic H-8 injection; type: in vivo; conditions: systemic injection 5, 15, 30 mg/kg/day for 4 weeks
hMSC-TERT [7] = assay: Adipocyte differentiation (Oil red O, qRT-PCR of adipogenic markers); type: cell-based, human; conditions: 25 μM in adipogenic induction media; Oil red O day 15, qRT-PCR day 10
Experimental: To determine the effect of H-8 on adipocyte differentiation of hMSC, H-8 was added (25 μM) to the adipogenic induction media (AIM) of hMSC-TERT.

[8] = tested on: human CD14+ mononuclear cells; assay: Osteoclast formation, count of TRAP-positive multinucleated cells; type: cell-based; conditions: 25 μM, day 5 of differentiation
Description: The present inventors determined the effects of H-8 on osteoclast formation in peripheral blood-derived human CD14+ mononuclear cell cultures.

TGFβ signaling in hMSC = assay: TGFβ signaling, qRT-PCR and western blot; type: cell-based, human; conditions: 5 and 15 minutes after treatment
Description: (C): Western blot analysis of p-Smad and p-Akt reveled that the enahcing effect of H-8 on osteoblast differentiation of hMSC is mediated through activation of non-canonical TGFβ signaling. (D): SB431542, a selective inhibitor of TGWU activity abolished the enhanced phosphorylation of Akt and smad2 after H-8 treatment.
To investigate the mechanisms of the enhancing effects of H-8 on osteoblast differentiation of hMSC, the present inventors performed a DNA microarray analysis of hMSC-TERT under osteogenic culture conditions, in the presence or absence of the H-8 (25 μM). […] In order to identify the pathway that is primarily regulated by H-8 treatment, phosphorylation of canonical and non-canonical TGFβ signaling components was evaluated 5 minutes and 15 minutes after H-8 treatment. The inventors also evaluated the effect of TGFβ3 treatment on H-8 induced phosphorylation of Smad2 and Akt. […] This observation further confirms that the enhancing effect of H-8 on osteoblast differentiation of hMSC is mediated through regulation of TGFβ signaling.

hMSC-TERT [9] = conditions: 6 days after induction, hMSC-TERT
protein kinase G (PKG) = target: T1, protein kinase G (PKG) (Homo sapiens, UniProt Q13976); conditions: cited from earlier work
T1 sequence (Q13976 1-671): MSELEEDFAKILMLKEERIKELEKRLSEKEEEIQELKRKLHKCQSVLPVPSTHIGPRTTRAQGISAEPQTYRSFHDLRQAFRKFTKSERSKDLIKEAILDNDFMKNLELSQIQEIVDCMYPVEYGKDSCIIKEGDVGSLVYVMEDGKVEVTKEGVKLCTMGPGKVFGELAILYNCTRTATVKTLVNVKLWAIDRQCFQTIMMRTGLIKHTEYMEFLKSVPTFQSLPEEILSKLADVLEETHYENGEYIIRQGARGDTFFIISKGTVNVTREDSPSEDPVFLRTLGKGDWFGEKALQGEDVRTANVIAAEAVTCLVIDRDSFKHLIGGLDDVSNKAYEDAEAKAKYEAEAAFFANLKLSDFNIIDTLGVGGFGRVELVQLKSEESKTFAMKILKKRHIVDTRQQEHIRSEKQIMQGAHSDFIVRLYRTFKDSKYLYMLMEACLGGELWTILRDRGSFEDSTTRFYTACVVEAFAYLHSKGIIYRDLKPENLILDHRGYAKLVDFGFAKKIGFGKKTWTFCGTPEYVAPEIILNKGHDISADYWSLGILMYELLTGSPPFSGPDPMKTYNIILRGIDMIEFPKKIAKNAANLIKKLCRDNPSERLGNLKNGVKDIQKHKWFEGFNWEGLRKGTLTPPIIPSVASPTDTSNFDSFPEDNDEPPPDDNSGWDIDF

protein kinase C(PKC) = conditions: cited from earlier work
[10] = target: Myosin Light Chain Kinase (MLCK) (Homo sapiens, UniProt Q15746); conditions: cited from earlier work
Sequence of Myosin Light Chain Kinase (MLCK) (Q15746 whole entry): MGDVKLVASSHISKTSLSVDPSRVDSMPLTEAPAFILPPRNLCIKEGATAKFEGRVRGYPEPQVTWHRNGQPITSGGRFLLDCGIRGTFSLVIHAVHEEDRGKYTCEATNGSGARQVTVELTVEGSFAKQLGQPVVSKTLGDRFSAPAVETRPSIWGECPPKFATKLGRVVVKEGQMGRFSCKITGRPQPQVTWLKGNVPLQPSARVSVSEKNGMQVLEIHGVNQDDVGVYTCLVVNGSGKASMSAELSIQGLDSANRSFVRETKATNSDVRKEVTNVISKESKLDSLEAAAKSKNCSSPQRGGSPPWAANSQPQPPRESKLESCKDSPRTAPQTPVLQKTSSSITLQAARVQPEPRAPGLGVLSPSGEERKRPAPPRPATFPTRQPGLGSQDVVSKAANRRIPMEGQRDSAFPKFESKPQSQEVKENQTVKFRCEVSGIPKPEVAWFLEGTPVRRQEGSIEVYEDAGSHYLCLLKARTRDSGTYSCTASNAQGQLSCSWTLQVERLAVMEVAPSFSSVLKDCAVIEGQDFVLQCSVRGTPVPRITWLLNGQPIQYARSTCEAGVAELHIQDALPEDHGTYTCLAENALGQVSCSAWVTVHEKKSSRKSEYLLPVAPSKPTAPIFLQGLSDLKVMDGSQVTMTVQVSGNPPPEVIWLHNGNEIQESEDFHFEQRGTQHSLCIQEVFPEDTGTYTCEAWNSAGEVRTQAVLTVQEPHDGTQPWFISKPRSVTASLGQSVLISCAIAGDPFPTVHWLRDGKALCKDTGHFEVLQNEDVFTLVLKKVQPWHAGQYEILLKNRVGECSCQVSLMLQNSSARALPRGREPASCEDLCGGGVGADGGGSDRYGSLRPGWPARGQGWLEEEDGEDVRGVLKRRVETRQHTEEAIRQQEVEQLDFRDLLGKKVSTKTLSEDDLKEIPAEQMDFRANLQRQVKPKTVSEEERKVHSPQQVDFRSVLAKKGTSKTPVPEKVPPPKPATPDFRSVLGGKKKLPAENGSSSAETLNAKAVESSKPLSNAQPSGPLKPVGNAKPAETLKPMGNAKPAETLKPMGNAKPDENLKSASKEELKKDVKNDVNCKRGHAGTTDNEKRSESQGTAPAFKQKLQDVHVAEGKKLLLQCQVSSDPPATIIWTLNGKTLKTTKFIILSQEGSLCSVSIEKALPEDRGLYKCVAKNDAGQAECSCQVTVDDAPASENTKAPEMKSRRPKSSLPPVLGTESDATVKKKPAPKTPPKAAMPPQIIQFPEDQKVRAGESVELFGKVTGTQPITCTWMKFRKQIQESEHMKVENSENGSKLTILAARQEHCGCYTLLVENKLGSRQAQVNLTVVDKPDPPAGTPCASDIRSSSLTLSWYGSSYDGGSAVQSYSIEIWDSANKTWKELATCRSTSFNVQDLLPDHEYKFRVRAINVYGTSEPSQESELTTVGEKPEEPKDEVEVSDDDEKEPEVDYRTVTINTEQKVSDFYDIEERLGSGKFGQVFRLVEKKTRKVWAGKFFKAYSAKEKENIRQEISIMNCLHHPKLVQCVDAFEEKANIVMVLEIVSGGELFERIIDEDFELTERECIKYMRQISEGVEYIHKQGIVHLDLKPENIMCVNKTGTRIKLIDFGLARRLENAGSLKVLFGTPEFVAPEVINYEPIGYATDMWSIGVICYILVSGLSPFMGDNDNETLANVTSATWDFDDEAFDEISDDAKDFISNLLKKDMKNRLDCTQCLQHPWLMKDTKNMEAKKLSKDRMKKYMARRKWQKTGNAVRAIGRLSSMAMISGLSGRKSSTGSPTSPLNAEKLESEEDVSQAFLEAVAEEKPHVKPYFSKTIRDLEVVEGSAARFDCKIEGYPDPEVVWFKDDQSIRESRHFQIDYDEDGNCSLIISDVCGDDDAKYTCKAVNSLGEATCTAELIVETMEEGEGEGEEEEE

osteoclast = conditions: table 1 of Soerensen et al; cited from earlier work

SMILES: CNCCNS(=O)(=O)c1cccc2cnccc12 [H-8, N-[2-(methylamino)ethyl]-5-isoquinolinesulfonamide]
- stage of differentiation at which H-8 is needed (matrix mineralization) (hMSC-TERT [1]; 25 μM added at different time points during 12-days period): needed during the first 9 days to exert its effects
- gene expression of osteogenic markers (qRT-PCR) (hMSC-TERT [1]; 25 μM, 9-days in vitro hMSC osteogenic differentiation): enhanced gene expression of early and late osteogenic markers
- ALP enhancing effect in serum free induction media (hMSC-TERT [1]; 25 μM, serum free induction media): persists in the absence of serum
- optimal concentration for highest enhancement of osteoblast differentiation of hMSC (hMSC-TERT [1]; based on in vitro studies): 20 to 30 µM
- dependence of ALP enhancing effect on differentiation inducers (hMSC-TERT [1]; each component of osteoblastic induction media removed): not dependent on differentiation inducers
- ALP activity (hMSC-TERT [1]; hMSC-TERT, OIM, dose range 1-30 μM, day 6, dose-dependent): significantly increased
- matrix mineralization (alizarin red staining) (hMSC-TERT [1]; hMSC-TERT, OIM, dose range 1-30 μM, day 12, dose-dependent): significantly increased
- ALP activity ([2]; day 6, dose-dependent): significantly increased
- matrix mineralization (alizarin red staining) ([2]; day 12, dose-dependent): significantly increased
- matrix mineralization (alizarin red staining) ([3]; 25 μM, day 10 of differentiation): enhanced matrix mineralization
- ALP activity ([3]; day 6 of osteoblastic differentiation): dose dependent enhancing effect
- activated Caspase-3 (western blot), hMSC survival (hMSC): reduced level of activated Caspase-3
- hMSC survival in vivo (luminescent imaging) [4]: increased hMSC survival
- heterotopic bone formation, cells pre-treated in vitro ([5]; hMSC-TERT treated 25 μM for 7 days, implanted subcutaneously, histology after 8 weeks): enhanced amount of heterotopic bone formation
- heterotopic bone formation, systemic treatment ([5]; intraperitoneally 30 mg/kg/day for 4 weeks after implantation of HA/TCP-hMSC-TERT): increased amount of heterotopic bone formation
- necropsy, toxic effects [6]: all tissues looked normal
- adipocyte differentiation of hMSC (hMSC-TERT [7]): does not affect adipocyte differentiation
- osteoclast formation (TRAP-positive multinucleated cells) [8]: did not affect osteoclast formation
- Akt phosphorylation (western blot) (TGFβ signaling in hMSC): enhanced Akt phosphorylation at both 5 and 15 minutes
- Smad2 phosphorylation (western blot) (TGFβ signaling in hMSC): enhanced Smad2 phosphorylation was detected only 15 minutes after H-8 treatment
- Relative ALP activity (hMSC-TERT [9]; 1 μM inhibitor in osteogenic inducing media): 1.701
- Relative ALP activity (hMSC-TERT [9]; 10 μM inhibitor in osteogenic inducing media): 1.87
- IC50 (protein kinase G (PKG)): 0.48 µM
- IC50 (protein kinase C(PKC)): 15 µM
- IC50 [10]: 68 µM
- osteoclastic acid secretion (osteoclast): no effect on osteoclastic acid secretion
